Test [1] relates to maize. The following applies: in vivo.
Test [2] deals with maize. The following applies: in vivo. This is another data set of the same source.

Several values for one entry are separate records, joined by “and”; a condition that tells them apart may be missing. Equal values may be shown once. Entries after “also recorded” stand apart in the source; their conditions may differ.

We go through nine compounds from patent US20180332790A1 (priority 2015, published 2018).

For the compound `CCCCC/C=C\C/C=C\CCCCCCCC(=O)O` [LLA, linoleic acid], in the test with maize [1], the “decrease in embryo abortion frequency compared to control buffer” value is on record as 2.9%; the “effect on embryo abortion and kernel formation in haploid inducer crosses (in words)” value was “reduces the rate of embryo abortion and increases the rate of kernel formation; also recorded: increase the rate of viable kernel formation by reducing fertilization failure and embryo abortion”; the “effect on haploid induction rate / number of haploids in haploid inducer crosses (in words)” value is given as “boosted the haploid induction rate; also recorded: increase the number of haploids formed and/or the rate of haploid formation”; the “increase in haploid induction rate compared to control buffer” value is given as 1.5%. For the same compound, in the test on maize [1], the “increase in haploids recovered per ear compared to control buffer” value amounted to 7.6 haploids per ear and the “increase in number of kernels per ear compared to control buffer” value is listed as 41 per ear. In addition, the “de novo haploid induction (in words)” value with maize [2] is recorded as “triggered de novo haploid induction”.

Consider `CC1=C(CC/C(C)=C/CCC2=CC[C@H](C3=CC(=O)O[C@H]3O)O[C@H]2O)C(C)(C)CCC1` [manoalide, reference compound], for which the “de novo haploid induction (in words)” value in the test on maize [2] is reported as “triggered de novo haploid induction; also recorded: able to induce haploid formation de novo”.

With `CCCCC/C=C\C/C=C\CCCCCCCC(=O)OCC` [LLAEE, linoleic acid ethyl ester], in the test on maize [1], the “AVERAGE/EAR HIR” value is 13.0% and 15.4%; the AVERAGE/EAR haploids was 23.1 and 27.9; the “AVERAGE/EAR k. a. rate” value was 29.9% and 33.0%; the “AVERAGE/EAR k. a. rate, vs control” value is −3.7% and −2.9%. For the same compound, in the test on maize [1], the AVERAGE/EAR kernels is 194.1 and 194.6; the “AVERAGE/EAR kernels, vs control” value was “+43.3”; the “decrease in embryo abortion frequency compared to control buffer” value stood at 3.7%; the “effect on embryo abortion and kernel formation in haploid inducer crosses (in words)” value was “reduces the rate of embryo abortion and increases the rate of kernel formation; also recorded: increase the rate of viable kernel formation by reducing fertilization failure and embryo abortion”. Further, in the test with maize [1], the “effect on haploid induction rate / number of haploids in haploid inducer crosses (in words)” value is “boosted the haploid induction rate; also recorded: increase the number of haploids formed and/or the rate of haploid formation”, the “increase in haploid induction rate compared to control buffer” value is reported as 2.4%, the “increase in haploids recovered per ear compared to control buffer” value is “over 8 haploids per ear” and the “increase in number of kernels per ear compared to control buffer” value is given as “over 43 per ear”.

For the compound `CCCCCCCCCCCCCCCCCC(=O)OC[C@H](COP(=O)([O-])OCC[N+](C)(C)C)OC(=O)CCCCCCCCCCCCCCCCC` [DSPC, 1,2-distearoyl-sn-glycero-3-phosphatidyl choline], in the test with maize [2], the “de novo haploid formation (in words)” value is on record as “achieved de novo haploid formation” and the “de novo haploid induction (in words)” value is “triggered de novo haploid induction; also recorded: highly active”.

With `CCCCCCCCCCCCCCCC(=O)OCC` [PAEE, palmitic acid ethyl ester], the “de novo haploid induction (in words)” value in the test with maize [2] is recorded as “induces haploids”.

In the case of `CCCCCCCC/C=C\CCCCCCCC(=O)OCC` [OAEE, oleic acid ethyl ester], the “de novo haploid induction (in words)” value with maize [2] is “triggered de novo haploid induction”.

With `CCCCC/C=C\C/C=C\C/C=C\C/C=C\CCCC(=O)OC` [AAME, arachidonic acid methyl ester], the “de novo haploid induction (in words)” value with maize [2] is “triggered de novo haploid induction”.

On to `CCCCCCCC/C=C\CCCCCCCC(=O)O[C@H](COC(=O)CCCCCCCCCCCCCCCCC)COP(=O)(O)OCCN` [1-stearyl-2-oleoyl-sn-phosphatidylethanolamine], for which, in the test with maize [2], the “de novo haploid induction (in words)” value was “haploid inducing compound”.

Turning to `CCCCC/C=C\C/C=C\C/C=C\C/C=C\CCCC(=O)O` [arachidonic acid], the “de novo haploid induction (in words)” value in the test with maize [2] was “triggered”.
